Data as given in US20010006969A1, “PYRIMIDINE NUCLEUS-CONTAINING COMPOUND AND A MEDICAMENT CONTAINING THE SAME FOR A BLOOD OXYGEN PARTIAL PRESSURE AMELIORATION, AND A METHOD FOR PREPARING THE SAME” (priority 1997, published 2001).

Experiments:
[1] = tested on: hypoxemic model rats; assay: Determination of oxygen partial pressure increasing action (arterial blood PaO2 gain in hypoxemic model rats); format: in vivo, Sprague-Dawley male rats; conditions: urethane-anesthetized rats, i.v. continuously 0.1 mg/kg/min, PaO2 measured 10 minutes after completion of administration, gain before vs after
Description: Determination of oxygen partial pressure increasing action
Actions of the quinazoline derivatives of the present invention to increase oxygen partial pressure in the arterial blood were determined according to the following method:
Sprague-Dawley male rats having body weights of about 250 g were anesthetized (i.p.) with urethane and cannulated to the respiratory tracts, femoral arteries and femoral veins. An olive oil-charcoal powder suspension (10 mg/ml) was introduced in an amount of 0.8 ml/kg through the respiratory tract cannulae into the lungs to cause the rats to hypoxic state (PaO2≦75 mmHg). The quinazoline derivatives listed in Table 1 were intravenously administered to these hypoxemic model rats continuously at a rate of 0.1 mg/kg/min, and arterial blood oxygen partial pressure value (PaO2) of each rat was measured at the time point of 10 minutes after completion of administration using a blood gas analyzer (Ciba Corning 800 series). Gains (APaO2) were determined based on results of PaO2 measurement made before and after administration of the test compounds.
Actions of the thienopyrimidine derivatives of the present invention to increase oxygen partial pressure in the arterial blood were determined according to the following method:
Sprague-Dawley male rats having body weights of about 250 g were anesthetized (i.p.) with urethane and cannulated to the respiratory tracts, femoral arteries and femoral veins. An olive oil-charcoal powder suspension (10 mg/ml) was introduced in an amount of 0.8 ml/kg through the respiratory tract cannulae into the lungs to cause the rats to be under hypoxic state (PaO2 Δ 75 mmHg). The thienopyrimidine derivatives listed in Table 2 were intravenously administered to these hypoxemic model rats continuously at a rate of 0.1 mg/kg/min, and arterial blood oxygen partial pressure value (PaO2) of each rat was measured at the time point of 10 minutes after completion of administration using a blood gas analyzer (Ciba Corning 800 series). Gains (ΔPaO2) were determined based on results of PaO2 measurement made before and after administration of the test compounds.

[2] = quinazoline derivatives, hypoxic state (PaO2≦75 mmHg) by olive oil-charcoal powder suspension
[3] = thienopyrimidine derivatives, hypoxic state (PaO2 Δ 75 mmHg) by olive oil-charcoal powder suspension

melting point	SMILES	ΔPaO2 [1, 2]	ΔPaO2 [1, 3]
78 to 79 °C	C=CCNc1nc(NCC=C)c2cc(Cl)ccc2n1 [Example 1, 2,4-Diallylamino-6-chloroquinazoline]	35 mmHg	–
198 to 200 °C (dec.)	C=CCNc1nc(NCC=C)c2cc([N+](=O)[O-])ccc2n1 [Example 3, 2,4-Diallylamino-6-nitroquinazoline]	28 mmHg	–
197 to 198 °C	C=CCNc1nc(NCCC)nc2ccc([N+](=O)[O-])cc12 [Example 4, 4-Allylamino-6-nitro-2-propylaminoquinazoline]	34 mmHg	–
167 to 168 °C	C=CCNc1nc(NCC(C)(C)C)nc2ccc([N+](=O)[O-])cc12 [Example 5, 4-Allylamino-2-neopentylamino-6-nitroquinazoline]	43 mmHg	–
216 to 217 °C	C=CCNc1nc(NCc2ccccc2)nc2ccc([N+](=O)[O-])cc12 [Example 6, 4-Allylamino-2-benzylamino-6-nitroquinazoline]	48 mmHg	–
183 to 184 °C	C=CCNc1nc(NC2CCCCC2)nc2ccc([N+](=O)[O-])cc12 [Example 7, 4-Allylamino-2-cyclohexylamino-6-nitroquinazoline]	35 mmHg	–
211 to 212 °C	C=CCNc1nc(NCCC)c2cc([N+](=O)[O-])ccc2n1 [Example 10, 2-Allylamino-6-nitro-4-propylaminoquinazoline]	34 mmHg	–
150 to 151 °C	C=CCNc1nc(NC(C)C)nc2ccc([N+](=O)[O-])cc12 [Example 18, 4-Allylamino-2-isopropylamino-6-nitroquinazoline]	30 mmHg	–
211 to 212 °C	C=CCNc1nc(NC)c2cc([N+](=O)[O-])ccc2n1 [Example 21, 2-Allylamino-4-methylamino-6-nitroquinazoline]	26 mmHg	–
215 to 216 °C	C=CCNc1nc(NCC)c2cc([N+](=O)[O-])ccc2n1 [Example 22, 2-Allylamino-4-ethylamino-6-nitroquinazoline]	27 mmHg	–
156 to 157 °C	C=CCNc1nc(NCCOCCC)c2cc([N+](=O)[O-])ccc2n1 [Example 39, 2-Allylamino-6-nitro-4-(2-propoxyethylamino)quinazoline]	30 mmHg	–
171 to 172 °C	CCCCNc1nc(NCC=C(C)C)c2cc([N+](=O)[O-])ccc2n1 [Example 60, 2-Butylamino-4-(3-methyl-2-butenylamino)-6-nitroquinazoline]	27 mmHg	–
55 °C	C=CCNc1nc(NCC=C)c2scc(CC)c2n1 [Example 103, 2,4-Diallylamino-7-ethylthieno[3,2-d]pyrimidine]	–	30 mmHg

Continued, molecule first:

SMILES	melting point	ΔPaO2 [1, 2]	ΔPaO2 [1, 3]
C=CCNc1nc(NCC=C)c2scc(C)c2n1 [Example 66, 2,4-Diallylamino-7-methylthieno[3,2-d]pyrimidine]	77 to 80 °C	–	26 mmHg
C=CCNc1nc(NC(C)(C)C)c2scc(C)c2n1 [Example 68, 2-Allylamino-4-t-butylamino-7-methylthieno[3,2-d] pyrimidine]	89 to 90 °C	–	31 mmHg
C=CCNc1nc(NCC)c2scc(C)c2n1 [Example 76, 2-Allylamino-4-ethylamino-7-methylthieno[3,2-d]pyrimidine]	96 to 97 °C	–	33 mmHg
C=CCNc1nc(NC23CC4CC(CC(C4)C2)C3)c2scc(C)c2n1 [Example 79, 4-(1-Adamantylamino)-2-allylamino-7-methylthieno[3,2-d] pyrimidine]	107 to 109 °C	–	36 mmHg
C=CCNc1nc(NCCCCCCCCC)c2scc(C)c2n1 [Example 80, 2-Allylamino-4-nonylamino-7-methylthieno[3,2-d]pyrimidine]	65 to 66 °C	–	28 mmHg
C=CCNc1nc(NCCCC)c2scc(C)c2n1 [Example 81, 2-Allylamino-4-butylamino-7-methylthieno[3,2-d]pyrimidine]	68 to 70 °C	–	29 mmHg
C=CCNc1nc(NC(C)CC)c2scc(C)c2n1 (centres unmarked) [Example 84, 2-Allylamino-7-methyl-4-(1-methylpropylamino)thieno[3,2-d] pyrimidine]	91 to 92 °C	–	27 mmHg
C=CCNc1nc(NC(C)(C)C)c2scc(CC)c2n1 [Example 104, 2-Allylamino-4-t-butylamino-7-ethylthieno[3,2-d]pyrimidine]	–	–	41 mmHg
C=CCNc1nc(NCC=C)c2scc(CCC)c2n1 [Example 105, 2,4-Diallylamino-7-propylthieno[3,2-d]pyrimidine]	–	–	28 mmHg
C=CCNc1nc(NC(C)(C)C)c2scc(CCC)c2n1 [Example 106, 2-Allylamino-4-t-butylamino-7-propylthieno[3,2-d] pyrimidine]	–	–	28 mmHg
C=CCNc1nc(NC)c2scc(CCC)c2n1 [Example 107, 2-Allylamino-4-methylamino-7-propylthieno[3,2-d] pyrimidine]	–	–	41 mmHg
